# Tested on: PDGF-BB-stimulated angiogenesis
# Assay: Anti-angiogenesis matrigel mouse model (MM assay) supplemented with PDGF-BB, plug hemoglobin content
# Assay type: in vivo, mice (C57BL/6J)
# Details: mice
# Excerpt: Angiogenesis inhibitory activity of a compound of this invention can be measured in vivo using the matrigel mouse model (MM Assay) of angiogenesis (Passaniti et al., Laboratory Investigation, 67: 519–528, 1992). The matrigel mouse assay is a well-established method to quantify angiogenesis (see e g. Capogrossi et al., Methods in Molecular Medicine, Vascular Disease: Molecular Biology and Gene Therapy Protocols, Edited by: A. H. Baker, Humana Press Inc., Totowa, N.J., 1999). The model has been characterized extensively for its relevance as a mimic of the process of angiogenesis and has been used extensively to evaluate in vivo both potential angiogenic and anti-angiogenic activity of numerous compounds/agents. […] All procedures involving animals were conducted in an animal facility fully accredited by the American Association for Assessment and Accreditation of Laboratory Animal Care (AAALAC) and in accordance with The Guide for the Care and Use of Laboratory Animals (NIH). […]
# Normal male mice (C57BL/6J) were injected subcutaneously (ventrally below rib cage at abdominal midline) with 1.0 mL of chilled matrigel supplemented with a single purified pro-angiogenic growth factor (100–500 ng/mL of either rhPDGF-BB (supra), recombinant human basic fibroblast growth factor, rhFGF-basic (R&D System Cat. No 233-FB) or recombinant human vascular endothelial growth factor, rhVEGF (PanVera Cat. No R2951) and heparin (35 U/mL). Compounds are formulated as 0.1% suspensions (1 mg/mL final concentration) in 0.5% methylcellulose. Vehicle or test compounds (8–10 mice per treatment group) were administered orally by gavage beginning two hours after matrigel injections. […] Supernatants were removed and the hemoglobin concentration in the plug extract was measured spectrophotometrically using the Drabkin's assay method (Drabkin's reagent kit 525-A; SIGMA) and read on a Beckman DU 7400 Spectrophotometer. […] Group differences were analyzed statistically using the Mann-Whitney Test, with a p-value of 0.05 or less considered statistically significant. […]
row,Structure (SMILES),"% Inhibition @ 30 mg/kg po (angiogenesis, MM assay supplemented with PDGF-BB)"
1,"COc1cc2c(cc1OC)-c1n[nH]c(Nc3cccc(F)c3)c1C2 [Compound 14, (3-Fluoro-phenyl)-(6,7-dimethoxy-2,4-dihydro-indeno[1,2-c]pyrazol-3-yl)-amine]",40%
2,"COc1cc2c(cc1OC)-c1n[nH]c(Nc3ccccc3F)c1C2 [Compound 12, (6,7-Dimethoxy-2,4-dihydro-indeno[1,2-c]pyrazol-3-yl)-(2-fluoro-phenyl)-amine]",45%

# Target: c-Abl kinase (Abelson murine leukemia virus, UniProt P00521)
# Sequence (P00521 115-385): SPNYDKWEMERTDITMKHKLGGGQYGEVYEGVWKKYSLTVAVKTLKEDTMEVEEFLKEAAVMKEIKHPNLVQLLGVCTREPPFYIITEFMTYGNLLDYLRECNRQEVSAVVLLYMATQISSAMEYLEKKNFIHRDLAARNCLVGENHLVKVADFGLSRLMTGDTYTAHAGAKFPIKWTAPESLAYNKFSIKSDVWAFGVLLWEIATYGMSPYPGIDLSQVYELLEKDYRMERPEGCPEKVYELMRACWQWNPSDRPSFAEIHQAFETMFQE
# Assay: Inhibition of c-Abl kinase activity (cell-free, Abl peptide substrate, 33P Flashplate)
# Assay type: biochemical
# Details: IC50 for the c-Abl kinase activity
row,Structure (SMILES),IC50
1,"COC(=O)c1cccc(Nc2[nH]nc3c2Cc2cc(OC)c(OC)cc2-3)c1 [Compound 11, 3-(6,7-Dimethoxy-2,4-dihydro-indeno[1,2-c]pyrazol-3-ylamino)-benzoic acid methyl ester]",118 nM
2,"Cc1ccc2c(c1)-c1n[nH]c(Nc3ccccc3)c1C2 [Compound 22, (7-Methyl-2,4-dihydro-indeno[1,2-c]pyrazol-3-yl)-phenyl-amine]",19 nM
3,"COc1ccc2c(c1)-c1n[nH]c(Nc3ccccc3)c1C2 [Compound 39, (7-Methoxy-2,4-dihydro-indeno[1,2-c]pyrazol-3-yl)-phenyl-amine]",13 nM
4,"COC(=O)c1cccc(Nc2[nH]nc3c2Cc2cc(OCCCN4CCCC4)c(OC)cc2-3)c1 [Compound 157, 3-[7-Methoxy-6-(3-pyrrolidin-1-yl-propoxy)-2,4-dihydro-indeno[1,2-c]pyrazol-3-ylamino]-benzoic acid methyl ester]",371 nM
5,"COc1cc2c(cc1OC)-c1n[nH]c(Nc3ccccc3F)c1C2 [Compound 12, (6,7-Dimethoxy-2,4-dihydro-indeno[1,2-c]pyrazol-3-yl)-(2-fluoro-phenyl)-amine]",20 nM
6,"CN1CCN(c2ccc3c(c2)Cc2c-3n[nH]c2Nc2cccc(Br)c2)CC1 [Compound 122, (3-Bromo-phenyl)-[6-(4-methyl-piperazin-1-yl)-2,4-dihydro-indeno[1,2-c]pyrazol-3-yl]-amine]",1260 nM
7,"COc1cc2c(cc1OC)-c1n[nH]c(Nc3cccnc3)c1C2 [Compound 30, (6,7-Dimethoxy-2,4-dihydro-indeno[1,2-c]pyrazol-3-yl)-pyridin-3-yl-amine]",491 nM
8,"COc1cc2c(cc1OC)-c1c(c(Nc3cccc(F)c3)nn1C(=O)CO)C2 [Compound 432, 1-[3-(3-Fluoro-phenylamino)-6,7-dimethoxy-4H-indeno[1,2-c]pyrazol-1-yl]-2-hydroxy-ethanone]",96 nM
9,"COc1cc2c(cc1OC)-c1n[nH]c(NCc3cc(Cl)ccc3Cl)c1C2 [Compound 330, (2,5-Dichloro-benzyl)-(6,7-dimethoxy-2,4-dihydro-indeno[1,2-c]pyrazol-3-yl)-amine]",91 nM
10,"COc1cccc(Nc2[nH]nc3c2Cc2cc4c(cc2-3)OCO4)c1 [Compound 97, (2,9-Dihydro-5,7-dioxa-2,3-diaza-cyclopenta[a]-s-indacen-1-yl)-(3-methoxy-phenyl)-amine]",227 nM
11,"COc1cc2c(cc1OC)-c1n[nH]c(NCc3ccccc3)c1C2 [Compound 63, Benzyl-(6,7-dimethoxy-2,4-dihydro-indeno[1,2-c]pyrazol-3-yl)-amine]",419 nM

# From patent publication US7196110B2, “N-substituted tricyclic 3-aminopyrazoles as inhibitors for the treatment of cell proliferative disorders” (Janssen Phamaceutica N.V., priority 2002, dated 2007)
